Patent EP0158265A2, “Benzamide and anilide derivatives” (BEECHAM GROUP PLC, priority 1984, dated 1985)

Tested on: von Bezold-Jarisch reflex evoked by 5HT
Experiment: Antagonism of the von Bezold-Jarisch reflex evoked by 5HT in the anaesthetised rat
Assay type: in vivo
Conditions: anaesthetised male rat; compound given intravenously; concentration reducing the 5HT-evoked heart rate response (5-HT usually 6µg/kg i.v.) to 50% of control
Method: Antagonism of the von Bezold-Jarisch reflex
The compounds were evaluated for antagonism of the von Bezold-Jarisch reflex evoked by 5HT in the anaesthetised rat according to the following method: • Male rats (Beecham Pharmaceuticals), 250-350g, were anaesthetised with urethane (1.25g/kg intraperitoneally) and blood pressure and heart rate recorded as described by Fozard J.R. et al., J. Cardiovasc. Pharmacol. 2, 229-245 (1980). A submaximal dose of 5-HT (usually 6µg/kg) was given repeatedly by the intravenous route and changes in heart rate quantified. Examples were given intravenously and the concentration required to reduce the 5HT-evoked response to 50% of the control response (ED50) was then determined.

CN1C2CCC1CC(NC(=O)c1cc(Cl)cc(Cl)c1)C2 (stereo not drawn) [(2), 3,5-dichloro-N-[3β-{8-methyl-8-azabicyclo(3.2.1)octyl}] benzamide]
ED50: 0.3 mg/kg i.v.

CN1C2CCC1CC(NC(=O)c1cc(Cl)cc(Cl)c1)C2 (stereo not drawn) [(5), 3,5-Dichloro-N-[3α-{8-methyl-8-azabicyclo(3.2.1)octyl}] benzamide]
ED50: 0.009 mg/kg i.v.
